Measurements: patent publication US20250042875A1, “PESTICIDALLY ACTIVE PYRIDAZINONE COMPOUNDS” (SYNGENTA CROP PROTECTION AG, priority 2021, published 2025)

Experiments:
Type in all cases: in vivo
Myzus persicae [1] = assay: Activity against Myzus persicae (green peach aphid), intrinsic activity; settings: 120 h, test rate 12 ppm, 5 days after infestation
In short: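 Compounds diluted from 10′000 ppm DMSO stocks were mixed with sucrose solution under a stretched Parafilm membrane. Aphid-infested pea seedlings were set on the membrane and the plate was inverted so the aphids fed through it. Mortality was scored 5 days after infestation.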

Myzus persicae [2] = assay: Activity against Myzus persicae (green peach aphid), feeding/contact activity; settings: 144 h, application rate 200 ppm, 6 days after infestation
Procedure: Example B5: Activity Against Myzus persicae (Green Peach Aphid). Feeding/Contact Activity
Sunflower leaf discs were placed onto agar in a 24-well microtiter plate and sprayed with aqueous test solutions prepared from 10′000 ppm DMSO stock solutions. After drying, the leaf discs were infested with an aphid population of mixed ages. The samples were assessed for mortality 6 days after infestation.

Euschistus heros = assay: Activity against Euschistus heros (neotropical brown stink bug), soybean leaves, N2 nymphs; settings: 120 h, application rate 200 ppm, 5 days after infestation, read-out: effect in at least one of the two categories (mortality or growth inhibition)
Procedure: Example B3: Activity Against Euschistus heros (Neotropical Brown Stink Bug)
Soybean leaves on agar in 24-well microtiter plates were sprayed with aqueous test solutions prepared from 10′000 ppm DMSO stock solutions. After drying the leaves were infested with N2 nymphs. The samples were assessed for mortality and growth inhibition in comparison to untreated samples 5 days after infestation.

Myzus persicae [3] = assay: Activity against Myzus persicae (green peach aphid), systemic activity; settings: 144 h, test rate 24 ppm, 6 days after placing seedlings into test solutions
Procedure: Example B9: Activity Against Myzus persicae (Green Peach Aphid). Systemic Activity
Roots of pea seedlings infested with an aphid population of mixed ages were placed directly into aqueous test solutions prepared from 10′000 DMSO stock solutions. The samples were assessed for mortality 6 days after placing seedlings into test solutions.

Plutella xylostella = assay: Activity against Plutella xylostella (diamond back moth), artificial diet, eggs; settings: 192 h, application rate 200 ppm, 8 days after infestation, read-out: control in at least one of the two categories (mortality or growth inhibition)
In short: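 Artificial diet was treated with aqueous dilutions of 10′000 ppm DMSO stocks, dried, then infested with Plutella eggs. Mortality and growth inhibition versus untreated samples were scored 8 days after infestation.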

Spodoptera littoralis = assay: Activity against Spodoptera littoralis (Egyptian cotton leaf worm), cotton leaf discs, L1 larvae; settings: foliar, 72 h, application rate 200 ppm, 3 days after infestation, read-out: control in at least one of the three categories (mortality, anti-feedant effect, or growth inhibition)
In short: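 Cotton leaf discs on agar sprayed with aqueous test solutions made from 10′000 ppm DMSO stocks, then infested with five L1 larvae once dry. Mortality, anti-feeding and growth inhibition scored versus untreated samples 3 days after infestation; control counted when any category exceeds untreated.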

Chilo suppressalis = assay: Activity against Chilo suppressalis (striped rice stemborer), artificial diet, L2 larvae; settings: 144 h, application rate 200 ppm, 6 days after infestation, read-out: control in at least one of the three categories (mortality, anti-feedant effect, or growth inhibition)
In short: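 Artificial diet was treated with aqueous test solutions made from 10′000 ppm DMSO stocks, dried, then infested with 6-8 L2 larvae per well. Mortality, anti-feeding effect and growth inhibition were scored versus untreated samples 6 days after infestation; control means any category exceeds untreated.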

Diabrotica balteata = assay: Activity against Diabrotica balteata (corn root worm), maize sprouts, L2 larvae; settings: 96 h, application rate 200 ppm, 4 days after infestation, read-out: control in at least one of the two categories (mortality or growth inhibition)
Procedure: Example B2: Activity Against Diabrotica Balteata (Corn Root Worm)
Maize sprouts placed onto an agar layer in 24-well microtiter plates were treated with aqueous test solutions prepared from 10′000 ppm DMSO stock solutions by spraying. After drying, the plates were infested with L2 larvae (6 to 10 per well). The samples were assessed for mortality and growth inhibition in comparison to untreated samples 4 days after infestation.

Tetranychus urticae = assay: Activity against Tetranychus urticae (two-spotted spider mite), feeding/contact activity; settings: 192 h
Procedure: Example B10: Activity Against Tetranychus urticae (Two-Spotted Spider Mite). Feeding/Contact Activity
Bean leaf discs on agar in 24-well microtiter plates were sprayed with aqueous test solutions prepared from 10′000 ppm DMSO stock solutions. After drying the leaf discs were infested with a mite population of mixed ages. The samples were assessed for mortality on mixed population (mobile stages) 8 days after infestation.

[4] = system: Frankliniella occidentalis; assay: Activity against Frankliniella occidentalis (western flower thrips), feeding/contact activity; settings: 168 h, application rate 200 ppm, 7 days after infestation
Procedure: Example B4: Activity Against Frankliniella occidentalis (Western Flower Thrips). Feeding/Contact Activity
Sunflower leaf discs were placed on agar in 24-well microtiter plates and sprayed with aqueous test solutions prepared from […] stock solutions. After drying the leaf discs were infested with a Frankliniella population of mixed ages. The samples were assessed for mortality 7 days after infestation.

C[C@@H](c1ncnn1-c1ccc(=O)n(C)n1)N(C)C(=O)c1cc(Cl)cc(S(=O)(=O)C(F)(F)F)c1 [P18, 3-chloro-N-methyl-N-[(1S)-1-[2-(1-methyl-6-oxo-pyridazin-3-yl)-1,2,4-triazol-3-yl]ethyl]-5-(trifluoromethylsulfonyl) benzamide]
≥ 80%: mortality at 12 ppm (Myzus persicae [1]) | mortality at 200 ppm (Myzus persicae [2]) | percent effect (mortality or growth inhibition) at 200 ppm (Euschistus heros) | mortality at 24 ppm (Myzus persicae [3]) | percent control (mortality or growth inhibition) at 200 ppm (Plutella xylostella) | percent control (mortality, anti-feedant effect or growth inhibition) at 200 ppm (Spodoptera littoralis) | percent control (mortality, anti-feedant effect or growth inhibition) at 200 ppm (Chilo suppressalis) | percent control (mortality or growth inhibition) at 200 ppm (Diabrotica balteata)

C[C@H](NC(=O)c1cc(Cl)cc(C(F)(F)F)c1)c1ncnn1C1=NN(C)C(=O)CC1 [P19, 3-chloro-N-[(1S)-1-[2-(1-methyl-6-oxo-4,5-dihydropyridazin-3-yl)-1,2,4-triazol-3-yl]ethyl]-5-(trifluoromethyl)benzamide]
≥ 80%: mortality at 12 ppm (Myzus persicae [1]) | percent effect (mortality or growth inhibition) at 200 ppm (Euschistus heros) | percent control (mortality or growth inhibition) at 200 ppm (Plutella xylostella) | mortality at 200 ppm (Tetranychus urticae) | mortality at 200 ppm [4] | percent control (mortality, anti-feedant effect or growth inhibition) at 200 ppm (Spodoptera littoralis) | percent control (mortality, anti-feedant effect or growth inhibition) at 200 ppm (Chilo suppressalis) | percent control (mortality or growth inhibition) at 200 ppm (Diabrotica balteata)

C[C@@H](c1ncnn1-c1ccc(=O)n(C)n1)N(C)C(=O)c1cc(C(F)(F)F)cc(C(F)(F)F)c1 [P5, N-methyl-N-[(1S)-1-[2-(1-methyl-6-oxo-pyridazin-3-yl)-1,2,4-triazol-3-yl]ethyl]-3,5-bis(trifluoromethyl)benzamide]
≥ 80%: mortality at 12 ppm (Myzus persicae [1]) | mortality at 200 ppm (Myzus persicae [2]) | percent effect (mortality or growth inhibition) at 200 ppm (Euschistus heros) | mortality at 24 ppm (Myzus persicae [3]) | percent control (mortality or growth inhibition) at 200 ppm (Plutella xylostella) | percent control (mortality, anti-feedant effect or growth inhibition) at 200 ppm (Spodoptera littoralis) | percent control (mortality, anti-feedant effect or growth inhibition) at 200 ppm (Chilo suppressalis) | percent control (mortality or growth inhibition) at 200 ppm (Diabrotica balteata)

C[C@H](NC(=O)c1cc(Cl)cc(S(C)(=O)=O)c1)c1ncnn1-c1ccc(=O)n(C)n1 [P9, 3-chloro-N-[(1S)-1-[2-(1-methyl-6-oxo-pyridazin-3-yl)-1,2,4-triazol-3-yl]ethyl]-5-methylsulfonyl-benzamide]
≥ 80%: mortality at 12 ppm (Myzus persicae [1]) | mortality at 200 ppm (Myzus persicae [2]) | percent effect (mortality or growth inhibition) at 200 ppm (Euschistus heros) | mortality at 200 ppm [4]

CC(c1nccnc1-c1ccc(=O)n(C)n1)N(C)C(=O)c1cc(C(F)(F)F)cc(C(F)(F)F)c1 (stereo not drawn) [P6, N-methyl-N-[1-[3-(1-methyl-6-oxo-pyridazin-3-yl)pyrazin-2-yl]ethyl]-3,5-bis(trifluoromethyl)benzamide]
≥ 80%: mortality at 12 ppm (Myzus persicae [1]) | mortality at 200 ppm (Myzus persicae [2]) | mortality at 24 ppm (Myzus persicae [3]) | percent control (mortality or growth inhibition) at 200 ppm (Plutella xylostella) | percent control (mortality, anti-feedant effect or growth inhibition) at 200 ppm (Spodoptera littoralis) | percent control (mortality, anti-feedant effect or growth inhibition) at 200 ppm (Chilo suppressalis) | percent control (mortality or growth inhibition) at 200 ppm (Diabrotica balteata)

C[C@H](NC(=O)c1cc(C(F)(F)F)cc(C(F)(F)F)c1)c1ncnn1C1=NN(C)C(=O)CC1 [P2, N-[(1S)-1-[2-(1-methyl-6-oxo-4,5-dihydropyridazin-3-yl)-1,2,4-triazol-3-yl]ethyl]-3,5-bis(trifluoromethyl)benzamide]
≥ 80%: mortality at 200 ppm (Myzus persicae [2]) | percent effect (mortality or growth inhibition) at 200 ppm (Euschistus heros) | percent control (mortality or growth inhibition) at 200 ppm (Plutella xylostella) | mortality at 200 ppm [4] | percent control (mortality, anti-feedant effect or growth inhibition) at 200 ppm (Spodoptera littoralis) | percent control (mortality, anti-feedant effect or growth inhibition) at 200 ppm (Chilo suppressalis) | percent control (mortality or growth inhibition) at 200 ppm (Diabrotica balteata)
